Experimental data: article PMC8129715 (CPT: Pharmacometrics & Systems Pharmacology, 2021)
Read-outs that look alike come from different tables or passages of the source.

Tests used:
[1] = cited from earlier work
P-glycoprotein = settings: in vitro; cited from earlier work
[2] = single 10 mg oral dose, IR tablet, ref study E2006-A001-008 (NCT02089412), cited from earlier work; for Observed Cmax: geometric mean
CYP2B6 [3] = assay: In vitro induction; format: in vitro ADME; settings: unpublished data reported by Eisai Inc.
CYP2B6 [4] = settings: lemborexant 10 mg q.d. for 13 days, bupropion 75 mg on day 10, healthy adults; cited from earlier work
[5] = test system: cryopreserved human hepatocytes; assay: Metabolism in cryopreserved human hepatocytes with CYP inhibitors; format: in vitro ADME; settings: 1-aminobenzotriazole, troleandomycin and ketoconazole
[6] = single 10 mg oral dose, IR tablet, DDI study, cited from earlier work
[7] = capsule, cited from earlier work; for Observed AUC(0-t) / Observed Cmax: geometric mean; for Observed Cmax: healthy individuals
[8] = test system: breast cancer resistance protein; settings: in vitro; cited from earlier work
CYP3A [9] = assay: In vitro time-dependent inhibition; format: in vitro ADME; settings: unpublished data reported by Eisai Inc.
[10] = PBPK simulation of lemborexant PK in healthy individuals; parameters: species or system human
[11] = cited from earlier work; remark: listed apart in the source
CYP3A [12] = settings: cited from earlier work
[13] = human mass-balance study, cited from earlier work
[14] = test system: other CYP isoforms (1A2, 2A6, 2B6, 2C8, 2C9, 2C19, 2D6, 2E1, 2J2, 3A5, 4F12); assay: Metabolism by recombinant human CYP isoforms; format: in vitro ADME; settings: 37°C for 20 min; unpublished data reported by Eisai Inc.
[15] = Human blood to plasma concentration ratio; format: in vitro ADME
[16] = multiple 10 mg oral doses, capsule, cited from earlier work
[17] = pKa by capillary electrophoresis method; format: physicochemical
[18] = In vitro plasma protein binding; format: in vitro ADME, human; settings: unpublished data reported by Eisai Inc.
CYP3A4 [19] = assay: In vitro induction; format: in vitro ADME; settings: unpublished data reported by Eisai Inc.
CYP3A4 [20] = molecular target: CYP3A4 (Homo sapiens, UniProt P08684); assay: Metabolism by recombinant human CYP isoforms; format: in vitro ADME; settings: 37°C for 20 min; unpublished data reported by Eisai Inc.
[21] = Biliary excretion in rats; format: in vivo
[22] = multiple 10 mg oral doses, day 1
[23] = multiple 10 mg oral doses, day 14
[24] = single 10 mg oral dose, IR tablet, fasted, food effect study
[25] = single 10 mg oral dose, IR tablet, fed
[26] = single 10 mg oral dose, solution vs capsule
[27] = single 100 mg oral dose, solution vs capsule
[28] = co-administration with rifampicin 600 mg q.d.
[29] = lemborexant 10 mg with fluconazole 200 mg q.d.

Sequence of CYP3A4 (Homo sapiens, UniProt P08684) (P08684 whole entry, canonical isoform): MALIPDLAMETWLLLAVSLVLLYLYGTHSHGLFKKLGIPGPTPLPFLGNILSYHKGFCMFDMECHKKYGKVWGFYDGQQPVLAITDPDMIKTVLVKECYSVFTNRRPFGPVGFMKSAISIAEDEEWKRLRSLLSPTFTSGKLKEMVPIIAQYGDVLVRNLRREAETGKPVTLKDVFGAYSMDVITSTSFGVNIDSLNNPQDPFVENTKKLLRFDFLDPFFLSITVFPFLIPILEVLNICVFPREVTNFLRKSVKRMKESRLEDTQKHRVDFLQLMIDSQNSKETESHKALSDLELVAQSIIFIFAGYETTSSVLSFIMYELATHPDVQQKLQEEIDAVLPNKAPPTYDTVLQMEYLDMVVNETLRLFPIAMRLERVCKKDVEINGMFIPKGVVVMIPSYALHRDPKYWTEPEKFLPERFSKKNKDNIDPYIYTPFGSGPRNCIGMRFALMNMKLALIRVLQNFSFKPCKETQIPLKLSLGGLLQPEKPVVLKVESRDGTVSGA

In the case of `Cc1ncc(OC[C@@]2(c3cccc(F)c3)C[C@H]2C(=O)Nc2ccc(F)cn2)c(C)n1` [lemborexant], the “in vitro plasma protein binding (bound)” value ([1]; human plasma, 100–1000 ng/ml, no concentration dependency) is listed as 87.4–88.7%, the “Fu (fraction unbound in plasma)” value ([1]; mean value based on lemborexant 100 ng/ml) is listed as 0.113 and the “transport of lemborexant via P-glycoprotein” value (P-glycoprotein) is listed as “negligible”. For the same compound, the “Observed Cmax” value ([2]; fasted, food effect study) was 57.1 ng/mL, the “Observed Tmax” value ([2]; fasted, food effect study, median) was 1.00 h and the “Observed Cmax” value ([2]; fed (standard high-fat meal)) was 44.1 ng/mL. The “inductive effect on CYP2B6” value (CYP2B6 [3]) was “weak”, the “decrease in plasma exposures of S-bupropion” value (CYP2B6 [4]) was 45.5% and the “lemborexant metabolism in human hepatocytes in presence of CYP inhibitors” value [5] was “completely inhibited”. For the same compound, the “Observed AUC(0-t)” value ([6]; geometric mean) was 411 ng·h/mL, the “Observed Tmax” value ([6]; median) was 1.00 h and the “Observed Cmax” value ([6]; healthy individuals, geometric mean) was 54.3 ng/mL. For the same compound, the “Observed AUC(0-t)” value ([7]; single 2.5 mg oral dose) was 74.4 ng·h/mL, the “Observed Cmax” value ([7]; single 2.5 mg oral dose) was 14.9 ng/mL and the “Observed AUC(0-t)” value ([7]; single 10 mg oral dose) was 274 ng·h/mL. The “Observed Cmax” value ([7]; single 10 mg oral dose) was 32.0 ng/mL, the “Observed Tmax” value ([7]; single 10 mg oral dose, median) was 1.00 h and the “Observed AUC(0-t)” value ([7]; single 100 mg oral dose) was 4,300 ng∙h/ml. The “Observed Cmax” value ([7]; single 100 mg oral dose) was 242 ng/mL, the “transport of lemborexant via breast cancer resistance protein” value [8] was “negligible” and the “time-dependent inhibition on CYP3A” value (CYP3A [9]) was “weak”. For the same compound, the “fold difference (predicted/observed) of Cmax ratio for fasted and fed conditions” value ([10]; food effect study 008, 10 mg IR tablet) was 0.768, the “Fold difference, predicted/observed, AUC(0-t)” value [10, 22] was 0.92 and the “Fold difference, predicted/observed, Cmax” value [10, 22] was 0.86. For the same compound, the “Fold difference, predicted/observed, AUC(0-t)” value [10, 23] was 1.02, the “Fold difference, predicted/observed, Cmax” value [10, 23] was 0.73 and the “Fold difference, predicted/observed, AUC(0-t)” value ([10]; single 2.5 mg oral dose, solution vs capsule) was 0.89. For the same compound, the “Fold difference, predicted/observed, AUC(0-t)” value ([10]; single 10 mg oral dose, IR tablet) was 0.80, the “Fold difference, predicted/observed, AUC(0-t)” value [10, 24] was 0.85 and the “Fold difference, predicted/observed, Cmax” value [10, 24] was 0.45. For the same compound, the “Fold difference, predicted/observed, AUC(0-t)” value [10, 25] was 0.71, the “Fold difference, predicted/observed, Cmax” value [10, 25] was 0.34 and the “Fold difference, predicted/observed, AUC(0-t)” value [10, 26] was 1.29. The “Fold difference, predicted/observed, Cmax” value [10, 26] was 0.85, the “Fold difference, predicted/observed, AUC(0-t)” value [10, 27] was 0.76 and the “Fold difference, predicted/observed, Cmax” value [10, 27] was 1.08. For the same compound, the “clinical efficacy (sleep)” value ([11]; doses of 5 mg and above) was “clinically meaningful sleep benefits”, the somnolence adverse events ([11]; lemborexant exposures greater than 10 mg) was “increased risk of somnolence adverse events” and the “increase in AUCR with strong and moderate CYP3A inhibitors” value (CYP3A [12]; co-administered with itraconazole and fluconazole) was ≤ 3.8 fold. The “reduction of lemborexant AUC(0-inf)” value (CYP3A [12]; [28]) was 97%, the “reduction of lemborexant Cmax” value (CYP3A [12]; [28]) was 92% and the “increase in lemborexant AUC(0-t)” value (CYP3A [12]; [29]) was 3.8 fold. The “increase in lemborexant Cmax” value (CYP3A [12]; [29]) was 1.6 fold, the “increase in lemborexant Cmax” value (CYP3A [12]; lemborexant 10 mg with itraconazole 200 mg q.d.) was 1.36 fold and the “CL/F (apparent oral clearance)” value ([13]; 10 mg capsule) was 32.8 L/h. The “unchanged lemborexant in feces” value ([13]; [14C]lemborexant 10 mg) was 13.0 % of dose, the “unchanged lemborexant in urine” value ([13]; [14C]lemborexant 10 mg) was “not detected” and the “residual ratio after incubation with other recombinant CYP isoforms” value [14] was ≥ 81%. The blood plasma ratio ([15]; B:P (blood-to-plasma partition ratio), mean, mean value from unpublished data reported by Eisai Inc.) was 0.636, the blood plasma ratio ([15]; human blood to plasma concentration ratio (B:P), concentration range 100–1000 ng/ml, unpublished data reported by Eisai Inc.) was 0.61 to 0.656 and the “Observed AUC(0-t)” value ([16]; day 1, geometric mean) was 182 ng·h/mL. The “Observed Cmax” value ([16]; day 1, geometric mean) was 28.0 ng/mL, the “Observed Tmax” value ([16]; day 1, median) was 3.25 h and the “Observed AUC(0-t)” value ([16]; day 14, geometric mean) was 321 ng·h/mL. The “Observed Cmax” value ([16]; day 14, geometric mean) was 44.8 ng/mL, the “Observed Tmax” value ([16]; day 14, median) was 1.75 h and the pKa [17] was < 3.5. The “Main binding protein in plasma” value [18] was “human serum albumin, low‐density lipoprotein, and high‐density lipoprotein”, the “inductive effect on CYP3A4” value (CYP3A4 [19]) was “weak” and the “residual ratio after incubation with recombinant CYP3A4” value (CYP3A4 [20]) was 30%. For the same compound, the “biliary excretion of lemborexant” value [21] was “no biliary excretion”.
